As a reminder, the Kd is the concentration at which binding is half-saturated.

Results on 1 compound are retold here after paper PMC11976424 (Journal of Advanced Research, 2024).

Assay [1] addresses AMPKα1β1γ1 (AMP-activated protein kinase) (Homo sapiens, UniProt Q13131). Nature of the assay: SPR. In kind it is binding.
Assay [2] deals with AMPKα2β1γ1 (AMP-activated protein kinase) (Homo sapiens, UniProt P54619+P54646+Q9Y478). Nature of the assay: SPR. In kind it is binding.

Structures are written as SMILES.

AMPKα1β1γ1 (AMP-activated protein kinase), sequence (Q13131 whole entry): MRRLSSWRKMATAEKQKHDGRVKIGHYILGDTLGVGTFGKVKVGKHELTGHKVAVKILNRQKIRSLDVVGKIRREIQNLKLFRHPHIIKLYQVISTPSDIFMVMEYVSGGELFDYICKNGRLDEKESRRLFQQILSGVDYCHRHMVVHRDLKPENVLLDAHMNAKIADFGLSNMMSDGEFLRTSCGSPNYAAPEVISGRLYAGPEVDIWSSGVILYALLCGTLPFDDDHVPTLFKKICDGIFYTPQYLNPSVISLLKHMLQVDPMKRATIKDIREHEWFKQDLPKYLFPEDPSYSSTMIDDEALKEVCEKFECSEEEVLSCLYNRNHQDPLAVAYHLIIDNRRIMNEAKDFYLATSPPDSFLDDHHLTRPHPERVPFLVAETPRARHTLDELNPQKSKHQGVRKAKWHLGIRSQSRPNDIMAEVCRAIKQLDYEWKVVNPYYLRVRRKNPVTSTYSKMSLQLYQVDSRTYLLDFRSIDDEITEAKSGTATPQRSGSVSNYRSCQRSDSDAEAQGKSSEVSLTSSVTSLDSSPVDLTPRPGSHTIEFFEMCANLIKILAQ
AMPKα1β1γ1 (AMP-activated protein kinase), sequence (Q9Y478 2-270 partner): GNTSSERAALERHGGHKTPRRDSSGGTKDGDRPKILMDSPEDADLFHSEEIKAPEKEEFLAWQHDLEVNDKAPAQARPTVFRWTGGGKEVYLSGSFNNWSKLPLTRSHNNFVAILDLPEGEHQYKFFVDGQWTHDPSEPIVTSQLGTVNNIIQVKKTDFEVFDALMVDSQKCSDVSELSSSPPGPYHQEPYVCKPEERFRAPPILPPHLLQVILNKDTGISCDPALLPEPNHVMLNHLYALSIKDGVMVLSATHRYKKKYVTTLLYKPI
AMPKα1β1γ1 (AMP-activated protein kinase), sequence (P54619 whole entry partner): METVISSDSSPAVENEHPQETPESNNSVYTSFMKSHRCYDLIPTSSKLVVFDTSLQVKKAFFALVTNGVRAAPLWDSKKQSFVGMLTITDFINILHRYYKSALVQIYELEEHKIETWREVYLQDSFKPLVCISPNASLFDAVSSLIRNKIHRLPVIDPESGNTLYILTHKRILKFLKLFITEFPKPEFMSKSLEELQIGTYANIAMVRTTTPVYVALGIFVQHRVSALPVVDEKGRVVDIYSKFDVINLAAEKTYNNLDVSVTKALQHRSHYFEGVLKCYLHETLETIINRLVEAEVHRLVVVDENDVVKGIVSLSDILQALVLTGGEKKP
AMPKα2β1γ1 (AMP-activated protein kinase), sequence (P54646 whole entry): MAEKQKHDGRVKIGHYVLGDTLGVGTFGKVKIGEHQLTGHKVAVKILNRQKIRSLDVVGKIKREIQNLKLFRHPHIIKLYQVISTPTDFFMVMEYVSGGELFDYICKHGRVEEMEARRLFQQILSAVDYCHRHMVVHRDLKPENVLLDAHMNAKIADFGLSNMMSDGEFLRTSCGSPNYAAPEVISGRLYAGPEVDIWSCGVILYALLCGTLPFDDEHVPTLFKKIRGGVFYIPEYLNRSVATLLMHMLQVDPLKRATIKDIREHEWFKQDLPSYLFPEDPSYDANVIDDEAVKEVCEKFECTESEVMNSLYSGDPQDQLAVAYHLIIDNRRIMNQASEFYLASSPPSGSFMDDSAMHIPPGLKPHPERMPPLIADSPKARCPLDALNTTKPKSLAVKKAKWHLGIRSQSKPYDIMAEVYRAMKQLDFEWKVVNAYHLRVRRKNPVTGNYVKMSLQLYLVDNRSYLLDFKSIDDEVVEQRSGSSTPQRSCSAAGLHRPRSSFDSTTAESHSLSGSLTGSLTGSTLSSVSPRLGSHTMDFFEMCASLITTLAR
AMPKα2β1γ1 (AMP-activated protein kinase), sequence (Q9Y478 2-270 partner): as the sequence (Q9Y478 2-270 partner) above
AMPKα2β1γ1 (AMP-activated protein kinase), sequence (P54619 whole entry partner): as the sequence (P54619 whole entry partner) above

Regarding `OC[C@H]1O[C@@H](Oc2c(O)cc(O)cc2/C=C/c2ccc(O)cc2)[C@H](O)[C@@H](O)[C@@H]1O` [TSG, 2,3,5,4′-tetrahydroxystilbene-2-O-β-D-glucoside], the Kd in assay [1] worked out at 3.77 µM; in assay [2] it was 4.67 µM.
